Laboratory results reported in patent US7358278B2, “Cellular phosphorylation potential enhancing compositions preparation and use thereof” (priority 1994, dated 2008).
Marks after values point to notes of the source that are not given here.

Columns and labels:
[1] = system: GT1-7 neurons; assay: Whole cell NADH levels by NADH fluorescence in suspended cells; assay type: cell-based, rat; conditions: 1 mM each, 1 hour incubation, Locke's media; * significant vs Locke's medium alone P<0.05
Method: (§1) While each of these agents may have additional neuroprotective properties outside of their role in energy metabolism, our major premise is that this combination will provide neuroprotection through enhancement of brain energy levels. To assess this we monitored three different bioenergetic parameters: Whole cell NADH levels, cellular ATP levels and cellular phosphocreatine levels. GT1-7 cells or cross-chopped rat cerebral cortical slices were equilibrated in oxygenated Locke's media for 1 hour. Pyruvate, nicotinamide, or creatine were than added alone or in combination at 1 mM each. Analytes were measured after another hour of incubation. NADH was measured using its specific fluorescence properties in suspended cells and the effect of each nutrient alone and in combination on GT1-7 neuronal NADH levels is shown in table 2a. Pyruvate would be expected to raise mitochondrial NADH levels through its participation in the Krebs cycle and it indeed appears to account for all of this effect in the combination. ATP and phosphocreatine were measured via a chemiluminescent assay utilizing firefly luciferase. In viable cells, phosphocretine levels most adequately reflect cellular energy supply since cells readily convert any excess ATP into phosphocreatine.

[2] = system: GT1-7 cells; assay: Thapsigargin (calcium overload) toxicity, neuroprotection, MTT dye reduction assay; conditions: 20 micromolar thapsigargin, FIG. 4B
Method: GT1-7 cell were subjected to treatments and assessed for nutrient neuroprotection as described in the text. All data are means +/− SEM from at least three different experiments.
To study calcium overload toxicity, we treated cells with thapsigargin, an agent that blocks the endoplastic reticulum calcium pump and markedly elevates cytoplasmic calcium levels. […] All studies were performed in Locke's medium prepared in our laboratory to avoid contribution from the vitamins and additives typically found in many commercial media. After determining the toxin treatment dose needed to produce complete toxicity, we then treated the cells dose-dependently with pyruvate, nicotinamide (nicotinamide) and creatine, either alone or in combination along with the LD95 dose of the toxins. […] For the combination experiments, all three agents are added together and the x-axis indicates the concentration of each agent in the combination.

[3] = system: GT1-7 neurons; assay: Cellular ATP and phosphocreatine levels, chemiluminescent firefly luciferase assay; assay type: cell-based, rat; conditions: 1 mM each, 1 hour incubation; for ATP (% control) / CP (% control): Locke's media; for CP (% control): phosphocreatine
Method: as §1

[4] = system: rat cerebral cortical slices; assay: ATP and phosphocreatine levels in cross-chopped cerebral cortical slices, firefly luciferase assay; assay type: cell-based; conditions: 1 mM each
Method: as §1, with “Analytes were measured after another hour of incubation.” left out, “phosphocreatine. […] The response with the combination was larger and was maintained after 6 hours of continued incubation.” for “phosphocreatine.”

[5] = system: rat cortical neurons; assay: Glutamate-induced delayed toxicity, neuroprotection, MTT assay; conditions: FIG. 5b
Method: Cell death (glutamate toxicity) was measured using the MTT assay.
The glutamate exposure involved treatment wit 100 micromoolar glutamate for 30 min followed by its removal. […] All data are means +1-SEM from at least three different experiments.
To study glutamate neurotoxicity, we utilized primary cultures of rat cortical neurons and used a glutamate pulse model which produces delayed neuronal death in 24 hrs. All studies were performed in Locke's medium prepared in our laboratory to avoid contribution from the vitamins and additives typically found in many commercial media.
To determine whether the protective effects of pyruvate against glutamate toxicity were due to its effect on cell metabolism, we utilized 4-hydroxycinnamate, a compound that blocks the transporter by which pyruvate enters mitochondria. While pyruvate can exert its antioxidant effects in any compartment, its utilization in energy metabolism requires its entry into mitochondria.

[6] = system: rat cerebral cortical astrocytes; assay type: cell-based; conditions: FIG. 11
Method: Astrocytes were treated with increasing amounts of the ER calcium pump inhibitor thapsigargin for 24 hrs in either Krebs buffer or MEM. Cell viability was determined using the MTT assay.
FIG. 10. Exogenous pyruvate provides protection to astrocytes from calcium overload in Krebs Buffer.
For these experiments astrocytes were cultured in either MEM or in Krebs alone or in Krebs with different aminoacid additions grouped as in FIG. 8. Aminoacids were used at 1 mM each. Following 30 min incubation with aminoacids, 15 μM thapsigargin was added to the cultures and the astrocytes cultured for another 24 hours in the presence or absence of 10 mM cinnamate, at which point cell viability was determined using the MTT assay. Cell viability is expressed as percent of that seen with MEM without thapsigargin addition. At the 15 μM thapsigargin dose, about 80% viability is seen in MEM and this is reduced to 20% by the addition of pyruvate. […]
The combination of pyruvate, nicotinamide, and creatine has synergistic benefits for cellular energy metabolism and is also cytoprotective. […] Since we had shown that pyruvate protects neurons from calcium overload induced by thapsigargin toxicity, we first determined whether endogenously produced or exogenously supplied pyruvate could protect astrocytes from calcium overload induced by thapsigargin as shown previously for GT1-7 neurons. […]

| Structure (SMILES) | NADH fluorescence [1] | protection against calcium overload (in words) [2] | CP/ATP Ratio [3] | ATP (% control) [3] | CP (% control) [3] | ATP % ctr ([4]; 1 h) [% ctr] | CP % ctr ([4]; 1 h) [% ctr] | CP/ATP Ratio ([4]; 1 h) | ATP % ctr ([4]; 6 h) [% ctr] | CP % ctr ([4]; 6 h) [% ctr] | CP/ATP Ratio ([4]; 6 h) | effect on glutamate toxicity alone (in words) [5] | effect on the protection by pyruvate (in words) [5] | effect of cinnamate on susceptibility of MEM cultured astrocytes to thapsigargin (in words) [6] |
| --- | --- | --- | --- | --- | --- | --- | --- | --- | --- | --- | --- | --- | --- | --- |
| CN(CC(=O)O)C(=N)N [Creatine, creatine] | 99.3 ± 2.3 | nearly complete dose dependent protection | 115.2 | 42 + 14.2* % control | 3314.3 + 920* % control |  |  |  |  |  |  |  |  |  |
| CC(=O)C(=O)O [Pyruvate, pyruvate] | 134.64 ± 9.9* |  | 6 | 103.5 ± 17.7 % control | 551.7 ± 193.7 % control | 77.7 | 233.6 | 3.1 | 143.6 | 150.6 | 1 |  |  |  |
| O=C(O)C=Cc1ccc(O)cc1 [4-hydroxycinnamate] |  |  |  |  |  |  |  |  |  |  |  | no significant effect on glutamate toxicity alone | prevents the protective effects of pyruvate | more susceptible to thapsigargin toxicity |
| NC(=O)c1cccnc1 [Nicotinamide, nicotinamide] | 98.8 ± 2.2 | nearly complete dose dependent protection | 4.3 | 48.6 ± 23.4 % control | 133.1 + 25 % control |  |  |  |  |  |  |  |  |  |
